Measured values taken from ChEMBL document CHEMBL4610105, “Microketides A and B, Polyketides from a Gorgonian-Derived Microsphaeropsis sp. Fungus” (J Nat Prod, 2020).
Values after ≈ are worked out from the molar mass of the structure shown.

Tests used:
[1] = test system: Pseudomonas aeruginosa; assay: Antibacterial activity against Pseudomonas aeruginosa assessed as reduction in microbial growth after 18 hrs by MTT based broth dilution method; assay type: functional
[2] = test system: Proteus vulgaris; assay: Antibacterial activity against Proteus vulgaris assessed as reduction in microbial growth after 18 hrs by MTT based broth dilution method; assay type: functional
[3] = test system: Micrococcus luteus; assay: Antibacterial activity against Micrococcus lysodeikticus assessed as reduction in microbial growth after 18 hrs by MTT based broth dilution method; assay type: functional
[4] = test system: Salmonella typhi; assay: Antibacterial activity against Salmonella typhi assessed as reduction in microbial growth after 18 hrs by MTT based broth dilution method; assay type: functional, Salmonella enterica subsp. enterica serovar Typhi; settings: Salmonella enterica
[5] = test system: Vibrio parahaemolyticus; assay: Antibacterial activity against Vibrio parahaemolyticus assessed as reduction in microbial growth after 18 hrs by MTT based broth dilution method; assay type: functional
[6] = test system: Bacillus cereus; assay: Antibacterial activity against Bacillus cereus assessed as reduction in microbial growth after 18 hrs by MTT based broth dilution method; assay type: functional
[7] = test system: Shigella dysenteriae; assay: Antibacterial activity against Shigella dysenteriae assessed as reduction in microbial growth after 18 hrs by MTT based broth dilution method; assay type: functional
[8] = test system: Bacillus subtilis; assay: Antibacterial activity against Bacillus subtilis assessed as reduction in microbial growth after 18 hrs by MTT based broth dilution method; assay type: functional
[9] = test system: Pestalotiopsis calabae; assay: Antifungal activity against Pestalotia calabae assessed as reduction in microbial growth; assay type: functional
[10] = Antifungal activity against Gloeosporium musarum assessed as reduction in microbial growth; assay type: functional
[11] = test system: Salmonella enterica subsp. enterica serovar Paratyphi B; assay: Antibacterial activity against Salmonella paratyphi B assessed as reduction in microbial growth after 18 hrs by MTT based broth dilution method; assay type: functional
[12] = test system: Klebsiella aerogenes; assay: Antibacterial activity against Enterobacter aerogenes assessed as reduction in microbial growth after 18 hrs by MTT based broth dilution method; assay type: functional
[13] = test system: Colletotrichum truncatum; assay: Antifungal activity against Colletotrichum truncatum assessed as reduction in microbial growth; assay type: functional
[14] = test system: Karenia mikimotoi; assay: Anti-phytoplankton activity against Karenia mikimotoi after 96 hrs by fluorometric method; assay type: functional, organism-based
[15] = test system: Kocuria rhizophila; assay: Antibacterial activity against Kocuria rhizophila assessed as reduction in microbial growth after 18 hrs by MTT based broth dilution method; assay type: functional
[16] = test system: Candida albicans; assay: Antifungal activity against Candida albicans assessed as reduction in microbial growth; assay type: functional
[17] = test system: Nocardia brasiliensis; assay: Antibacterial activity against Nocardia brasiliensis assessed as reduction in microbial growth after 18 hrs by MTT based broth dilution method; assay type: functional
[18] = test system: Heterosigma akashiwo; assay: Anti-phytoplankton activity against Heterosigma akashiwo after 96 hrs by fluorometric method; assay type: functional, organism-based
[19] = test system: Isochrysis galbana; assay: Anti-phytoplankton activity against Isochrysis galbana after 96 hrs by fluorometric method; assay type: functional, organism-based
[20] = test system: Tetraselmis helgolandica; assay: Anti-phytoplankton activity against Platymonas helgolandica after 96 hrs by fluorometric method; assay type: functional, organism-based
[21] = test system: Escherichia coli; assay: Antibacterial activity against Escherichia coli assessed as reduction in microbial growth after 18 hrs by MTT based broth dilution method; assay type: functional
[22] = test system: Bacillus anthracis; assay: Antibacterial activity against Bacillus anthracis assessed as reduction in microbial growth after 18 hrs by MTT based broth dilution method; assay type: functional
[23] = test system: Priestia megaterium; assay: Antibacterial activity against Bacillus megaterium assessed as reduction in microbial growth after 18 hrs by MTT based broth dilution method; assay type: functional

Row | SMILES | MIC [1] | MIC [2] | MIC [3] | MIC [4] | MIC [5] | MIC [6] | MIC [7] | MIC [8] | MIC [9] | MIC [10] | MIC [11] | MIC [12] | MIC [13] | EC50 [14] | MIC [15] | MIC [16] | MIC [17] | EC50 [18] | MIC [22] | MIC [23] | further results
1 | CC1=C(Cc2c(C)cccc2O)C(=O)[C@@](C)(O)[C@@H](O)C1 | 0.19 µg/mL | 0.39 µg/mL | 0.39 µg/mL | 0.19 µg/mL | 0.39 µg/mL | 0.19 µg/mL | 3.13 µg/mL | 0.19 µg/mL | 1.56 µg/mL | 3.13 µg/mL | 0.19 µg/mL | 0.19 µg/mL | 1.56 µg/mL | > 50 µg/mL | 0.19 µg/mL | 1.56 µg/mL | 0.19 µg/mL | > 50 µg/mL | 0.19 µg/mL | 0.19 µg/mL | EC50 [19]: > 50 µg/mL; EC50 [20]: 12.3 µg/mL (≈ 44.5 µM); MIC [21]: 1.56 µg/mL
2 | CC1=C(Cc2c(C)cccc2O)C(=O)[C@@](C)(O)[C@H](O)C1 | 1.56 µg/mL | 1.56 µg/mL | 0.78 µg/mL | 0.19 µg/mL | 3.13 µg/mL | 0.39 µg/mL | 6.25 µg/mL | 1.56 µg/mL | 3.13 µg/mL | 3.13 µg/mL | 0.39 µg/mL | 1.56 µg/mL | 3.13 µg/mL | > 50 µg/mL | 0.39 µg/mL | 3.13 µg/mL | 0.39 µg/mL | > 50 µg/mL | 0.39 µg/mL | 0.19 µg/mL | EC50 [19]: > 50 µg/mL; EC50 [20]: 16.8 µg/mL (≈ 60.8 µM); MIC [21]: 3.13 µg/mL
3 | CC(=O)N1CCN(c2ccc(OCC3COC(Cn4ccnc4)(c4ccc(Cl)cc4Cl)O3)cc2)CC1 (centres undefined) [KETOCONAZOLE] |  |  |  |  |  |  |  |  | 0.78 µg/mL | 0.39 µg/mL |  |  | 0.19 µg/mL |  |  | 0.78 µg/mL |  |  |  |  | 
4 | O=C(O)c1cn(C2CC2)c2cc(N3CCNCC3)c(F)cc2c1=O [CIPROFLOXACIN] | 0.19 µg/mL | 0.09 µg/mL | 0.19 µg/mL | 0.09 µg/mL | 0.19 µg/mL | 0.09 µg/mL | 0.19 µg/mL | 0.09 µg/mL |  |  | 0.05 µg/mL | 0.05 µg/mL |  |  | 0.19 µg/mL |  | 0.19 µg/mL |  | 0.19 µg/mL | 0.19 µg/mL | 
